# Results published in the supplement of paper PMC10307832.
# Experiments:
# Experiment in all cases: relative viability (nuclei count vs DMSO), 5 days (fraction); higher = more cells survive
# [1] = compound: CC1=C(C=CC(=C1)[N+](=O)[O-])NS(=O)(=O)C2=C(C=CC(=C2)Cl)Cl [FH535] + CS(=O)(=O)N1CCN(Cc2cc3nc(-c4cccc5[nH]ncc45)nc(N4CCOCC4)c3s2)CC1 [Pictilisib] (partner 1 µM)
# Procedure, shortened: (§1)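 Lung cancer cell lines in 1536-well plates were dosed by pin tool the day after seeding, either with one drug alone or with a fixed anchor-drug dose plus five library-drug doses (not always all listed) in √10 steps. After 5 days, cells were fixed and their nuclei stained in one step (final 0.05% Triton X-100, 1% formaldehyde, 1 ug/ml Hoechst), then counted on 4× images. Relative viability is the nuclei count in treated wells divided by that in vehicle wells. Values are medians of duplicate plates.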
# [2] = compound: CC1=C(C=CC(=C1)[N+](=O)[O-])NS(=O)(=O)C2=C(C=CC(=C2)Cl)Cl [FH535] + CCNC(=O)c1noc(-c2cc(C(C)C)c(O)cc2O)c1-c1ccc(CN2CCOCC2)cc1 [Luminespib] (partner 0.01 µM)
# Procedure, shortened: as §1
# [3] = compound: CC1=C(C=CC(=C1)[N+](=O)[O-])NS(=O)(=O)C2=C(C=CC(=C2)Cl)Cl [FH535] + CS(=O)(=O)CCNCc1ccc(-c2ccc3ncnc(Nc4ccc(OCc5cccc(F)c5)c(Cl)c4)c3c2)o1 [Lapatinib] (partner 2 µM)
# Procedure, shortened: as §1
# [4] = compound: CC1=C(C=CC(=C1)[N+](=O)[O-])NS(=O)(=O)C2=C(C=CC(=C2)Cl)Cl [FH535] + CC(=O)Nc1cccc(-n2c(=O)n(C3CC3)c(=O)c3c(Nc4ccc(I)cc4F)n(C)c(=O)c(C)c32)c1 [Trametinib] (partner 0.02 µM)
# Procedure, shortened: as §1
# [5] = compound: CC1=C(C=CC(=C1)[N+](=O)[O-])NS(=O)(=O)C2=C(C=CC(=C2)Cl)Cl [FH535] + CC(=O)c1c(C)c2cnc(Nc3ccc(N4CCNCC4)cn3)nc2n(C2CCCC2)c1=O [Palbociclib] (partner 0.5 µM)
# Procedure, shortened: as §1
Cell Line,relative viability ([1]; first compound 0.04 µM),relative viability ([1]; first compound 0.1265 µM),relative viability ([1]; first compound 0.4 µM),relative viability ([1]; first compound 1.265 µM),relative viability ([2]; first compound 0.04 µM),relative viability ([2]; first compound 0.1265 µM),relative viability ([2]; first compound 0.4 µM),relative viability ([2]; first compound 1.265 µM),relative viability ([3]; first compound 0.04 µM),relative viability ([3]; first compound 0.1265 µM),relative viability ([3]; first compound 0.4 µM),relative viability ([3]; first compound 1.265 µM),relative viability ([4]; first compound 0.04 µM),relative viability ([4]; first compound 0.1265 µM),relative viability ([4]; first compound 0.4 µM),relative viability ([4]; first compound 1.265 µM),relative viability ([5]; first compound 0.04 µM),relative viability ([5]; first compound 0.1265 µM),relative viability ([5]; first compound 0.4 µM),relative viability ([5]; first compound 1.265 µM)
NCI-H1755,0.341,0.449,0.421,0.415,0.394,0.445,0.38,0.418,1.04,0.985,0.944,0.949,0.755,0.809,0.725,0.739,0.428,0.413,0.463,0.448
NCI-H1792,0.251,0.289,0.317,0.256,0.441,0.433,0.436,0.263,0.837,0.948,0.866,0.673,0.493,0.504,0.455,0.394,0.657,0.629,0.664,0.486
NCI-H1793,0.344,0.401,0.313,0.301,0.168,0.229,0.19,0.143,0.525,0.575,0.641,0.696,0.4,0.421,0.425,0.399,0.315,0.306,0.348,0.241
NCI-H1915,0.732,0.903,0.835,0.77,0.81,0.797,0.775,0.644,0.867,0.826,0.852,0.795,0.312,0.324,0.296,0.247,0.537,0.501,0.469,0.45
NCI-H1944,–,0.37,0.34,0.344,0.672,0.82,0.727,0.669,–,0.777,0.668,0.754,0.405,0.42,0.398,0.325,0.328,0.326,0.35,0.272
NCI-H1975,0.274,0.274,0.296,0.244,0.178,0.22,0.164,0.167,0.863,0.748,0.715,0.73,0.329,0.232,0.287,0.329,0.627,0.403,0.481,0.474
NCI-H1993,0.679,0.747,0.769,0.709,0.87,0.736,0.55,0.449,0.676,0.781,0.729,0.714,0.57,0.566,0.496,0.52,0.651,0.661,0.592,0.415
NCI-H2009,0.753,0.87,0.724,0.763,0.996,1.02,0.938,0.686,0.82,0.859,0.853,0.656,0.306,0.316,0.251,0.24,0.243,0.174,0.229,0.215
NCI-H2023,0.209,0.226,0.252,0.231,0.838,0.704,0.681,0.64,0.671,0.846,0.919,0.738,0.542,0.641,0.598,0.44,0.383,0.369,0.404,0.331
NCI-H2085,0.407,0.568,0.481,0.486,0.333,0.481,0.41,0.268,0.744,0.686,0.692,0.573,0.567,0.624,0.503,0.403,0.507,0.45,0.448,0.365
NCI-H2087,0.885,0.885,0.731,0.52,0.178,0.141,0.147,0.191,0.918,0.825,0.868,0.6,0.243,0.152,0.182,0.157,0.23,0.176,0.21,0.158
NCI-H2126,0.472,0.497,0.472,0.425,0.841,0.919,0.868,0.514,0.734,0.679,0.696,0.676,0.541,0.624,0.535,0.392,0.352,0.329,0.363,0.322
NCI-H2170,0.255,0.418,0.315,0.285,0.726,0.606,0.661,0.426,0.26,0.332,0.265,0.254,0.964,0.883,0.752,0.706,0.397,0.423,0.372,0.312
NCI-H2228,0.327,0.416,0.369,0.305,0.127,0.152,0.156,0.0969,0.574,1.15,1.2,0.927,0.376,0.368,0.464,0.413,0.734,0.548,0.745,0.788
NCI-H2347,0.484,0.591,0.639,0.726,0.617,0.333,0.39,0.752,0.979,0.664,0.971,0.781,0.276,0.318,0.3,0.291,0.456,0.342,0.416,0.397
NCI-H2405,0.329,0.447,0.425,0.422,0.76,0.752,0.602,0.605,0.934,1.13,0.963,0.734,0.56,0.651,0.611,0.531,0.5,0.504,0.492,0.354
